Results taken from PMC5701137, “Discovery of novel choline acetyltransferase inhibitors using structure-based virtual screening” (Scientific Reports, 2017).
Where “and” joins values, the source holds several entries; their conditions need not be identical. Equal values may be shown once.

What was measured:
recombinant human AChE = molecular target: T1, recombinant human AChE (Homo sapiens, UniProt P22303); assay: Modified Ellman's colorimetric assay for AChE and kinetic studies; assay type: biochemical; settings: for inhibition at 200 µM: read-out: AChE % IR (inhibition rate); for Ki / IC50: mean of two experiments; for IC50: substrate ATC 0.5 mM
T1 construct: purchased Sigma C1682
Excerpt: (§1) A modified version of Ellman’s colorimetric assay[16],[17] was adapted to a high throughput assay for the enzymatic activity of BuChE and AChE. The reagent, butyrylthiocholine iodide (BTC), acetylthiocholine iodide (ATC), 5,5′-dithiobis (2-nitrobenzoic acid) (DTNB) were purchased from Sigma-Aldrich (St. Louis, MO, USA). The modified assay details are as previously described[34],[35]. The main modification concerned with the high throughput adaptation of the assay for use in 384-well plates. Briefly, 25 μL/well of a 1:450 diluted solution of a pooled human plasma and 1:768 diluted (3.5 ng/ml final concentration) purified recombinant human AChE protein (Sigma, Cat no. C1682) was used for measurement of BuChE and AChE activity, respectively. In the initial in vitro screening step, the wells were pre-incubated with 25 μL/wells of different Asinex compounds for 10–30 minutes at room temperature. The concentration of the compounds working solution was 3X to give a final concentration of 200 μM in a final volume of 75 μL in each well. The stock concentration of the compounds were prepared in 100% DMSO. The stock concentration was chosen usually at 10 mM, allowing the final DMSO concentration in the wells to be less than 4%. Finally, 25 μL of a cocktail mix prepared in Na/K phosphate buffer, containing DTNB (final concentration 0.4 mM) and BTC, (final concentration 1 mM) or ATC (final concentration 0.5 mM) was added to each well and the changes in absorbance was monitored at 412 nm wavelength for 15–20 minutes with one-minute interval, using a microplate spectrophotometer reader (Infinite M1000, Tecan). The rate of the enzyme activity was determined from the linear part of the kinetic reaction curves as ∆OD/time.
(§2) For kinetic studies, a similar protocol as inhibition assay was followed; a dilution series of five different concentrations ranging from 10^−6 to 10^−9 M were prepared for each selected Asinex compounds. For ChAT, the A-CoA was kept constant at 10 μM (final) but the concentration of choline chloride varied between 320–10 μM. For BuChE, BTC was used as the substrate in the concentrations ranging from 0.0625 to 2 mM. For AChE, ATC was used as the substrate in the concentrations ranging from 0.0312 to 1 mM. Each compound concentration was measured in duplicates. The rate of enzyme activity (as ∆OD/hr kinetic data) was calculated and processed using the GraphPad Prism 7 analysis software. The inhibitory constant (Ki) values were determined from the dose-response curve and the half-maximal inhibitory concentration (IC50) values were calculated by plotting the percentage enzyme activity vs. the log of the Asinex compound concentrations and fitting the data using the nonlinear regression Enzyme Kinetics-Inhibition function.

human rChAT [1] = molecular target: T2, human rChAT (Homo sapiens, UniProt P28329); assay: In vitro ChAT activity inhibition fluorometric assay and kinetic studies; assay type: biochemical; settings: for inhibition at 100 µM: read-out: ChAT % IR (inhibition rate)
T2 construct: made in house; host or cells: E. coli BL21 Rosetta2
T2 sequence (P28329 1-630 isoform P28329-3): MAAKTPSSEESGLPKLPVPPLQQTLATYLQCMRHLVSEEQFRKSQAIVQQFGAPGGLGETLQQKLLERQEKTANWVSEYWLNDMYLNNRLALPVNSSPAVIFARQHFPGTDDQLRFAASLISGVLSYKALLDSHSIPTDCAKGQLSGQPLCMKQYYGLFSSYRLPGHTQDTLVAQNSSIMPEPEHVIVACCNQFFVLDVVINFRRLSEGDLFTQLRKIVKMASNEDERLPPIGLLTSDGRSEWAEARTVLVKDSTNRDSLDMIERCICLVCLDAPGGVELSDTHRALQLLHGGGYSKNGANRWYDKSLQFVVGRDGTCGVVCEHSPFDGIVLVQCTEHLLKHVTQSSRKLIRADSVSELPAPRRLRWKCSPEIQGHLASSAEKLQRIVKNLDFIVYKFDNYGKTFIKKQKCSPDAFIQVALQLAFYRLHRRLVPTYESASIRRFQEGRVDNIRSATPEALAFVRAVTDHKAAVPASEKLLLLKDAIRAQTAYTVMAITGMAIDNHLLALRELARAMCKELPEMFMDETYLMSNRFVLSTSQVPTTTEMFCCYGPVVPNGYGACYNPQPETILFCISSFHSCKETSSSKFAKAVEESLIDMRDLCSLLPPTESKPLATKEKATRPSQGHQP
Procedure: ChAT activity was measured using our newly developed fluorometric assay, using human recombinant ChAT (rChAT) protein. The reagents, choline chloride, acetyl coenzyme-A (ACoA, A2181) and 7-Diethylamino-3-(4-maleimidophenyl)-4-methylcoumarin (CPM) were purchased from Sigma-Aldrich (St. Louis, MO, USA).
The ChAT assay could be run in either 96-well or 384-well plates. For 96-well plates, 50 μL/well of 0.212 µg/ml (final concentration) of the recombinant ChAT was incubated with 100 μM different Asinex compounds (50 μL/well) for 10–30 minutes at room temperature in dilution buffer (10 mM Tris-HCl, pH 7.4, 150 mM NaCl, 1.0 mM EDTA, 0.05% (v/v) Triton X-100). Then, 50 µL of a cocktail-A [dilution buffer containing choline chloride (final concentration 150 µM), ACoA (final concentration 13.3 µM) and CPM (final concentration 15 µM)] was added to each well. Immediately after adding the cocktail-A, the changes in fluorescence was monitored kinetically at 479 nm after exciting at 390 nm at 1–2 minute intervals for 15–20 minutes using a microplate spectrophotometer reader (Infinite M1000, Tecan).
Each Asinex compounds were run in triplicates. On each 96-wells plate, several enzyme wells without inhibitor were also included during measurements as control and for estimating the inhibition level. Negative controls were wells without enzyme. The percentage inhibition for each Asinex compound was calculated based on the enzyme control value as a reference (100% activity). The compounds showing over 50% inhibition of enzyme activity were selected for further kinetic studies.
as §2
The Michaelis-Menten constant (Km) and maximal velocity (Vmax) values were calculated from substrate-velocity curve after fitting the data with non-linear regression Michaelis-Menten kinetic function. The Km and Vmax values were further used to plot the Lineweaver-Burk plots; the plots were fitted using linear regression function.

HEK 293 cells = assay: MTT cell viability assay; assay type: cell-based; settings: overnight, control cells 100%, mean ± SD of 3 readings
Procedure: Finally, to assess the prospective of the identified compounds for further development into ChAT ligands, we assessed the compounds active against ChAT, AChE and BuChE, for their cellular toxicity on human embryonic kidney (HEK 293) cells using the cell viability 3-(4,5-dimethylthiazol-2-yl)-2,5-diphenyltetrazolium bromide (MTT) assay. All compounds were evaluated at 10 and 50 µM concentrations. The cell viability data is given in Table 4 (also represented as a bar chart in Fig. 9).
The in vitro cellular toxicity of the active compounds was evaluated using MTT assay. Briefly, Human embryonic kidney epithelial (HEK-293) cells cultured at 37 °C in a humidified environment with 5% CO2 in Dulbecco’s Modified Eagle’s medium (DMEM) in 96 well plate to obtain 70–80% confluency. Further, the cells were incubated overnight at 37 °C with 10 µM and 50 µM compounds in triplicate. Cells treated with 1% DMSO were used as controls. At the end of the treatment (12 h), 10 μL of 12 mM MTT dissolved in Phosphate buffer saline pH 7.4, was added to each well and incubated for an additional 2 h at 37 °C. The media was then removed from the plate and 100 µL of DMSO was added to dissolve the violet formazan crystals. Finally, the absorbance was measured at 540 nm with a reference wavelength of 630 nm on Tecan spectrophotometer with shaking before the reading. The percentage viability was calculated taking 1% DMSO control as 100 percent and presented as mean ± SD.

plasma BuChE = molecular target: T3, plasma BuChE (Homo sapiens, UniProt P06276); assay: Modified Ellman's colorimetric assay for BuChE (pooled human plasma) and kinetic studies; assay type: biochemical; settings: for inhibition at 200 µM: read-out: BuChE % IR (inhibition rate)
T3 construct: 1:450 diluted solution of a pooled human plasma; from tissue; host or cells: pooled human plasma
Excerpt: as §1, §2

human rChAT [2] = molecular target: T2, human rChAT; assay: In vitro ChAT activity inhibition fluorometric assay and kinetic studies; assay type: biochemical; settings: mean ± SEM of two experiments
ChAT = system: ChAT; parameters: method as in PMID 27507101; settings: as previously reported by our group ref 26; cited from earlier work
[3] = 200 µM compound, compared to control, mean of three experiments in triplicate
[4] = 100 µM compound, compared to control, mean of three experiments in triplicate
[5] = substrate BTC 1 mM, mean of two experiments
[6] = 200 µM compound, compared to control, mean of three experiments in triplicate, 200 µM
[7] = Lineweaver-Burk plot and nonlinear regression fit

T1 sequence (P22303 32-614): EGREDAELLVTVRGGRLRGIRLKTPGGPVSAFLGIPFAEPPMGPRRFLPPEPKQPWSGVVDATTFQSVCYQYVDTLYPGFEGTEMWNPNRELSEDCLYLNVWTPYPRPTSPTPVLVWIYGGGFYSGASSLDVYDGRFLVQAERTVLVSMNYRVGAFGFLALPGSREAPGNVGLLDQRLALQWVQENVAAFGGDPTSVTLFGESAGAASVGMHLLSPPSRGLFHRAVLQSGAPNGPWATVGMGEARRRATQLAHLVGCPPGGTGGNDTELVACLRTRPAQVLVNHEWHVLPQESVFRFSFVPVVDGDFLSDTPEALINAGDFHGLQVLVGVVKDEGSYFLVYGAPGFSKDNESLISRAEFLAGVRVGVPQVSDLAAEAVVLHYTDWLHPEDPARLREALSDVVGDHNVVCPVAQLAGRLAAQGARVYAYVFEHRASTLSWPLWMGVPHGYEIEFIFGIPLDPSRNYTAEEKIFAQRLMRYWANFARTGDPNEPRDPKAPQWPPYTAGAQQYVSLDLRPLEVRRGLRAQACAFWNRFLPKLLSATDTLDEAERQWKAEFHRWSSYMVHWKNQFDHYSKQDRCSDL
T3 sequence (P06276 29-602): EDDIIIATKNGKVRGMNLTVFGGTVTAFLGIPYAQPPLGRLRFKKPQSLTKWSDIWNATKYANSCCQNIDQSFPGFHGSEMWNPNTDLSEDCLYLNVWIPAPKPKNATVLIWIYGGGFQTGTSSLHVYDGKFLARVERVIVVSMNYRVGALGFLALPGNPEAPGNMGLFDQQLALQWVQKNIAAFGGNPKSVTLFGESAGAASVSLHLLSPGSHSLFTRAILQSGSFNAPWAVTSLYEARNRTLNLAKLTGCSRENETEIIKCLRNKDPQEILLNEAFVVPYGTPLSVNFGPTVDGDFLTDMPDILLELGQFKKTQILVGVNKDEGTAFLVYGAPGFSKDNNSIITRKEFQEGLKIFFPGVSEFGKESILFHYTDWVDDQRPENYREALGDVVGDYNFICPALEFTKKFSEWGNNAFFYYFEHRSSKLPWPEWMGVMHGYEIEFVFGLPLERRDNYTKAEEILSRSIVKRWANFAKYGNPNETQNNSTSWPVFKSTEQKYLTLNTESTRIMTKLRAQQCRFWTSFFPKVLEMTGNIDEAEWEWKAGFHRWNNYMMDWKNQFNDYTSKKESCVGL

SMILES | inhibition at 200 µM (recombinant human AChE; [3]) [%] | inhibition at 100 µM (human rChAT [1]; [4]) [%] | % of cell proliferation (HEK 293 cells; 10 µM) [%] | % of cell proliferation (HEK 293 cells; 50 µM) [%] | inhibition at 200 µM (plasma BuChE; [3]) [%] | Ki (plasma BuChE; mean of two experiments) [µM] | IC50 (plasma BuChE; [5]) | Ki (recombinant human AChE) [µM] | IC50 (recombinant human AChE) | also measured
O=C(NC1CCCC1)c1ccc(CN2CCN(Cc3ccccc3)CC2)cc1 [Compound A2] | 0 | 6.9 | 62.1 ± 4.0 | 72.2 ± 13.1 | > 50 | 84.9 | 527 µM |  |  | 
CCc1ccc2[nH]c3nc(SCCC(=O)N4CCCCCC4)nnc3c2c1 [Compound B1] | 9 |  |  |  | 15 |  |  |  |  | AChE % IR (inhibition rate) (recombinant human AChE; [6]): 9.1%; mode of inhibition of human rChAT (human rChAT [1]; [7]): mixed-model inhibition; Vmax of rChAT (human rChAT [1]; inhibitor 0.4 µM, mean ± SEM of two experiments): 247.3 ± 17.8 µM/min; Ki (human rChAT [1]; mean of two experiments): ~9.4 µM and 9.4 µM; IC50 (human rChAT [1]; substrate concentrations 20 to 80 µM, mean of two experiments): ~7 µM and 7 µM; BuChE % IR (inhibition rate) (plasma BuChE; [6]): 14.8%; Vmax of rChAT (human rChAT [2]; inhibitor 2.0 µM): 189.6 ± 17.3 µM/min; Vmax of rChAT (human rChAT [2]; inhibitor 10.0 µM): 154.3 ± 13.4 µM/min; Vmax of rChAT (human rChAT [2]; inhibitor 50.0 µM): 73.5 ± 9.7 µM/min; Vmax of rChAT (human rChAT [2]; inhibitor 250.0 µM): 54.9 ± 6.8 µM/min
CCn1c(CNC(=O)COc2ccccc2F)cc2ccccc21 [Compound C2] | 0 | 0 | 87.7 ± 5.0 | 76.2 ± 7.6 |  | 59.6 | ~365 µM and 365 µM |  |  | mode of inhibition of BuChE (plasma BuChE; Lineweaver-Burk plot and nonlinear regression analysis): competitive mode of inhibition
CCn1c(CNC(=O)COc2ccc(F)cc2)cc2ccccc21 [Compound C4] | 4.9 | 0 | 82.4 ± 4.5 | 84.0 ± 10.0 | > 50 | 59.4 | 528 µM |  |  | 
O=C(NCc1ccc(CN2CCCCC2)cc1)c1nc(-c2ccc(C(F)(F)F)cc2)no1 [Compound C5] |  | 0 | 78.9 ± 3.3 | 36.1 ± 2.4 | > 50 |  |  | 23.7 | ~6.3 µM and 6.3 µM | mode of inhibition of AChE (recombinant human AChE; [7]): non-competitive mode of inhibition; BuChE IC50 (plasma BuChE; [5]): could not be calculated due to lack of complete inhibition even at the highest tested concentration of 300 µM
CCN(CC)C(=O)c1cccc(Nc2ccc(-c3ccccc3OC)nn2)c1 [Compound D3] | > 50 | 0 | 79.2 ± 2.5 | 66.2 ± 4.0 | 20.7 |  |  | 177 | 251 µM | 
COc1cc(CN2CCN(Cc3ccccc3Cl)CC2)c([N+](=O)[O-])cc1OC [Compound D4] |  | 3.5 | 84.0 ± 3.8 | 68.1 ± 1.4 | 18.2 |  |  | 141 | 146 µM | 
Cc1onc(-c2ccccc2Cl)c1C(=O)N1CCN(Cc2ccc3c(c2)OCO3)CC1 [Compound E7] | 0.5 | 0 |  |  | 37.5 |  |  |  |  | 
C[N+](C)(C)CCC(=O)c1cccc2ccccc12.[I-] [α-NETA, 2-(alpha-naphthoyl)ethyltrimethylammonium iodide, reference compound] |  | 93 |  |  |  |  |  |  |  | ChAT % IR (inhibition rate) (human rChAT [1]; 100 µM compound, compared to control, mean of three experiments in triplicate, 100 µM): 93.7%; IC50 (ChAT): 0.1 µM
